Source: US6319702A, “Nucleic acids encoding mutant human carboxypeptidase A enzymes” (Glaxo Wellcome, Inc., priority 1993, dated 2001)
Where two headings read alike, the source gives them in different places.

Assay: Stability and biodistribution of prodrugs in vivo (HPLC of plasma and tissues)
Design: species or system mice (CD-1 nude; BALB/C where indicated)
Conditions: 50 mg/kg i.p. or i.v., CD-1 nude mice; for remaining at 0.5 h / remaining at 2 h / concentration at 0.5 h / concentration at 2 h: mouse, 50 mg/kg; for concentration at 0.5 h / concentration at 2 h: read-out: concentration of prodrug in plasma
[1] = cecum, CECUM, 30 min, read-out: stability: percentage of material observed as intact prodrug, cecum
[2] = cecum, CECUM, 120 min, read-out: stability: percentage of material observed as intact prodrug, cecum
[3] = kidney, KIDNEY, 30 min, read-out: stability: percentage of material observed as intact prodrug, kidney
[4] = kidney, KIDNEY, 120 min, read-out: stability: percentage of material observed as intact prodrug, kidney
[5] = large intestine, LARGE INTESTINE, 30 min, read-out: stability: percentage of material observed as intact prodrug, large intestine
[6] = large intestine, LARGE INTESTINE, 120 min, read-out: stability: percentage of material observed as intact prodrug, large intestine
[7] = liver, LIVER, 30 min, read-out: stability: percentage of material observed as intact prodrug, liver (converted)
[8] = liver, LIVER, 120 min, read-out: stability: percentage of material observed as intact prodrug, liver
[9] = plasma, PLASMA, 30 min, read-out: stability: percentage of material observed as intact prodrug, plasma
[10] = plasma, PLASMA, 120 min, read-out: stability: percentage of material observed as intact prodrug, plasma
[11] = small intestine, SMALL INTESTINE, 30 min, read-out: stability: percentage of material observed as intact prodrug, small intestine
[12] = small intestine, SMALL INTESTINE, 120 min, read-out: stability: percentage of material observed as intact prodrug, small intestine
[13] = spleen, SPLEEN, 30 min, read-out: stability: percentage of material observed as intact prodrug, spleen
[14] = spleen, SPLEEN, 120 min, read-out: stability: percentage of material observed as intact prodrug, spleen
[15] = tumor, TUMOR, 30 min, read-out: stability: percentage of material observed as intact prodrug, tumor
[16] = tumor, TUMOR, 120 min, read-out: stability: percentage of material observed as intact prodrug, tumor

Row | Compound | concentration of prodrug in cecum (CECUM, 30 min) | concentration of prodrug in cecum (CECUM, 120 min) | concentration of prodrug in kidney (KIDNEY, 30 min) | concentration of prodrug in kidney (KIDNEY, 120 min) | concentration of prodrug in large intestine (LARGE INTESTINE, 30 min) | concentration of prodrug in large intestine (LARGE INTESTINE, 120 min) | concentration of prodrug in liver (LIVER, 30 min) | concentration of prodrug in liver (LIVER, 120 min) | concentration of prodrug in small intestine (SMALL INTESTINE, 30 min) | concentration of prodrug in small intestine (SMALL INTESTINE, 120 min) | concentration of prodrug in spleen (SPLEEN, 30 min) | concentration of prodrug in spleen (SPLEEN, 120 min) | concentration of prodrug in tumor (TUMOR, 30 min) | concentration of prodrug in tumor (TUMOR, 120 min) | remaining at 0.5 h [1] | remaining at 2 h [2] | remaining at 0.5 h [3] | remaining at 2 h [4] | remaining at 0.5 h [5] | remaining at 2 h [6] | also measured
1 | CN(Cc1cnc2nc(N)nc(N)c2n1)c1ccc(C(=O)N[C@@H](CCC(=O)O)C(=O)N[C@@H](CC(=O)O)C(=O)O)cc1 [Prodrug 6] | 7.5 nmol/g | 0.8 nmol/g | 93.4 nmol/g | 12.6 nmol/g | 5.7 nmol/g | 19.4 nmol/g | 287.8 nmol/g | 161.6 nmol/g | 21.3 nmol/g | 14.2 nmol/g | 3.4 nmol/g | 0.0 nmol/g | 7.5 nmol/g | 0.8 nmol/g | 82% | 59% | 98% | 98% | 100% | 65% | concentration of prodrug in feces (FECES, 30 min): 42 nmol/g; concentration of prodrug in feces (FECES, 120 min): 207 nmol/g; remaining at 0.5 h (feces, FECES, 30 min, read-out: stability: percentage of material observed as intact prodrug, feces (converted)): 21%; remaining at 2 h (feces, FECES, 120 min, read-out: stability: percentage of material observed as intact prodrug, feces): 52%; remaining at 0.5 h [7]: 97%; remaining at 2 h [8]: 93%; concentration at 0.5 h (plasma, PLASMA, 30 min): 46.7 µM; remaining at 0.5 h [9]: 100%; concentration at 2 h (plasma, PLASMA, 120 min): 2 µM; remaining at 2 h [10]: 100%; remaining at 0.5 h [11]: 86%; remaining at 2 h [12]: 54%; remaining at 0.5 h [13]: 70%; remaining at 2 h [14]: 0%; remaining at 0.5 h [15]: 82%; remaining at 2 h [16]: 59%
2 | CN(Cc1cnc2nc(N)nc(N)c2n1)c1ccc(C(=O)N[C@@H](CCC(=O)O)C(=O)N[C@@H](Cc2ccccc2C(=O)O)C(=O)O)cc1 [Prodrug 7] | 6.9 nmol/g | 1.5 nmol/g | 55.4 nmol/g | 3.8 nmol/g | 12.1 nmol/g | 91.8 nmol/g | 171.9 nmol/g | 7.5 nmol/g | 127.4 nmol/g | 24.1 nmol/g | 12.4 nmol/g | 1.0 nmol/g | 6.9 nmol/g | 1.5 nmol/g | 100% | 100% | 100% | 100% | 100% | 100% | remaining at 0.5 h [7]: 100%; remaining at 2 h [8]: 89%; concentration at 0.5 h (plasma, PLASMA, 30 min): 51.4 µM; remaining at 0.5 h [9]: 100%; concentration at 2 h (plasma, PLASMA, 120 min): 0.2 µM; remaining at 2 h [10]: 100%; remaining at 0.5 h [11]: 100%; remaining at 2 h [12]: 97%; remaining at 0.5 h [13]: 100%; remaining at 2 h [14]: 100%; remaining at 0.5 h [15]: 100%; remaining at 2 h [16]: 100%
